pIC50: −log10 of the molar value.

The target in the test is 1,3-beta-glucan synthase (Candida albicans). As to the kind of experiment: In vitro inhibition of 1,3-beta-glucan synthase in Candida albicans membrane assay.
A word on the pIC50: it is −log10 of the IC50, conventionally taken in molar units. The compound `C=Cc1cc(C[C@H](O)[C@@H]2NC(=O)[C@@H]3C[C@@H](O)CN3C(=O)[C@H]([C@@H](C)O)NC(=O)[C@H](NC(=O)CCCCCCCCC(C)CC(C)CC)C[C@@H](O)CNC(=O)[C@@H]3[C@@H](O)CCN3C(=O)[C@H]([C@@H](O)CC(N)=O)NC2=O)ccc1O` (some centres undefined) [Pneumocandin analogue] gave a pIC50 of 7.10.
The value for `CCC(C)CC(C)CCCCCCCCC(=O)N[C@@H]1C[C@@H](O)CNC(=O)[C@@H]2[C@@H](O)CCN2C(=O)[C@H]([C@@H](O)CC(N)=O)NC(=O)[C@H]([C@@H](O)Cc2ccc(O)c(/C=C/C(=O)OC)c2)NC(=O)[C@@H]2C[C@@H](O)CN2C(=O)[C@H]([C@@H](C)O)NC1=O` (some centres undefined) [Pneumocandin analogue] was 6.82.
Compound `CCC(C)CC(C)CCCCCCCCC(=O)N[C@@H]1C[C@@H](O)CNC(=O)[C@@H]2[C@@H](O)CCN2C(=O)[C@H]([C@@H](O)CC(N)=O)NC(=O)[C@H]([C@@H](O)Cc2ccc(O)c(C(=O)OC)c2)NC(=O)[C@@H]2C[C@@H](O)CN2C(=O)[C@H]([C@@H](C)O)NC1=O` (some centres undefined) [Pneumocandin analogue] showed a pIC50 of 5.52.
For `CCC(C)CC(C)CCCCCCCCC(=O)N[C@@H]1C[C@@H](O)CNC(=O)[C@@H]2[C@@H](O)CCN2C(=O)[C@H]([C@@H](O)CC(N)=O)NC(=O)[C@H]([C@@H](O)Cc2ccc(O)c(C=O)c2)NC(=O)[C@@H]2C[C@@H](O)CN2C(=O)[C@H]([C@@H](C)O)NC1=O` (some centres undefined) [Pneumocandin analogue], the pIC50 is less than 5.30.
`CCC(C)CC(C)CCCCCCCCC(=O)N[C@@H]1C[C@@H](O)CNC(=O)[C@@H]2[C@@H](O)CCN2C(=O)[C@H]([C@@H](O)CC(N)=O)NC(=O)[C@H]([C@@H](O)Cc2ccc(O)c(CCN)c2)NC(=O)[C@@H]2C[C@@H](O)CN2C(=O)[C@H]([C@@H](C)O)NC1=O` (some centres undefined) [Pneumocandin analogue] showed a pIC50 of 6.70.
For `CCC(C)CC(C)CCCCCCCCC(=O)N[C@@H]1C[C@@H](O)CNC(=O)[C@@H]2[C@@H](O)CCN2C(=O)[C@H]([C@@H](O)CC(N)=O)NC(=O)[C@H]([C@@H](O)Cc2ccc(O)c(CCO)c2)NC(=O)[C@@H]2C[C@@H](O)CN2C(=O)[C@H]([C@@H](C)O)NC1=O` (some centres undefined) [Pneumocandin analogue], the pIC50 was 7.22.
Next, `CCC(C)CC(C)CCCCCCCCC(=O)N[C@@H]1C[C@@H](O)CNC(=O)[C@@H]2[C@@H](O)CCN2C(=O)[C@H]([C@@H](O)CC(N)=O)NC(=O)[C@H]([C@@H](O)Cc2ccc(O)c(I)c2)NC(=O)[C@@H]2C[C@@H](O)CN2C(=O)[C@H]([C@@H](C)O)NC1=O` (some centres undefined) [Pneumocandin analogue]: 7.00; `CCC(C)CC(C)CCCCCCCCC(=O)N[C@@H]1C[C@@H](O)CNC(=O)[C@@H]2[C@@H](O)CCN2C(=O)[C@H]([C@@H](O)CC(N)=O)NC(=O)[C@H]([C@@H](O)Cc2ccc(O)c(N)c2)NC(=O)[C@@H]2C[C@@H](O)CN2C(=O)[C@H]([C@@H](C)O)NC1=O` (some centres undefined) [Pneumocandin analogue]: 7.30.
For `CCC(C)CC(C)CCCCCCCCC(=O)N[C@@H]1C[C@@H](O)CNC(=O)[C@@H]2[C@@H](O)CCN2C(=O)[C@H]([C@@H](O)CC(N)=O)NC(=O)[C@H]([C@@H](O)Cc2ccc(O)c([N+](=O)[O-])c2)NC(=O)[C@@H]2C[C@@H](O)CN2C(=O)[C@H]([C@@H](C)O)NC1=O` (some centres undefined) [Pneumocandin analogue], the pIC50 is 5.40. This pIC50 lies 1.90 log units lower than the previous one.
The value for `CCC(C)CC(C)CCCCCCCCC(=O)N[C@@H]1C[C@@H](O)CNC(=O)[C@@H]2[C@@H](O)CCN2C(=O)[C@H]([C@@H](O)CC(N)=O)NC(=O)[C@H]([C@@H](O)Cc2ccc(O)cc2)NC(=O)[C@@H]2C[C@@H](O)CN2C(=O)[C@H]([C@@H](C)O)NC1=O` (some centres undefined) [Pneumocandin analogue] was 7.15; that for `CCC(C)CC(C)CCCCCCCCC(=O)N[C@@H]1C[C@@H](O)[C@@H](O)NC(=O)[C@@H]2[C@@H](O)CCN2C(=O)[C@H]([C@@H](O)CC(N)=O)NC(=O)[C@H]([C@@H](O)[C@H](O)c2cc(I)c(O)c(I)c2)NC(=O)[C@@H]2C[C@@H](O)CN2C(=O)[C@H]([C@@H](C)O)NC1=O` (some centres undefined) [Pneumocandin analogue] was less than 5.00; that for `CCC(C)CC(C)CCCCCCCCC(=O)N[C@@H]1C[C@@H](O)[C@@H](O)NC(=O)[C@@H]2[C@@H](O)CCN2C(=O)[C@H]([C@@H](O)CC(N)=O)NC(=O)[C@H]([C@@H](O)[C@H](O)c2ccc(O)c(I)c2)NC(=O)[C@@H]2C[C@@H](O)CN2C(=O)[C@H]([C@@H](C)O)NC1=O` (some centres undefined) [Pneumocandin analogue] was 7.00.
For `CCC(C)CC(C)CCCCCCCCC(=O)N[C@@H]1C[C@@H](O)[C@@H](O)NC(=O)[C@@H]2[C@@H](O)CCN2C(=O)[C@H]([C@@H](O)CC(N)=O)NC(=O)[C@H]([C@@H](O)[C@H](O)c2ccc(O)c(N)c2)NC(=O)[C@@H]2C[C@@H](O)CN2C(=O)[C@H]([C@@H](C)O)NC1=O` (some centres undefined) [Pneumocandin analogue], the negative-log IC50 (pIC50) is 7.40.
The value for `CCC(C)CC(C)CCCCCCCCC(=O)N[C@@H]1C[C@@H](O)[C@@H](O)NC(=O)[C@@H]2[C@@H](O)CCN2C(=O)[C@H]([C@@H](O)CC(N)=O)NC(=O)[C@H]([C@@H](O)[C@H](O)c2ccc(O)c(NC(=O)CCC(=O)O)c2)NC(=O)[C@@H]2C[C@@H](O)CN2C(=O)[C@H]([C@@H](C)O)NC1=O` (some centres undefined) [Pneumocandin analogue] was 6.82.
`CCC(C)CC(C)CCCCCCCCC(=O)N[C@@H]1C[C@@H](O)[C@@H](O)NC(=O)[C@@H]2[C@@H](O)CCN2C(=O)[C@H]([C@@H](O)CC(N)=O)NC(=O)[C@H]([C@@H](O)[C@H](O)c2ccc(O)c(NC(=O)CCN)c2)NC(=O)[C@@H]2C[C@@H](O)CN2C(=O)[C@H]([C@@H](C)O)NC1=O` (some centres undefined) [Pneumocandin analogue] showed a pIC50 of 7.15. This pIC50 is 0.33 log units higher than that of the compound before.
For the compound `CCC(C)CC(C)CCCCCCCCC(=O)N[C@@H]1C[C@@H](O)[C@@H](O)NC(=O)[C@@H]2[C@@H](O)CCN2C(=O)[C@H]([C@@H](O)CC(N)=O)NC(=O)[C@H]([C@@H](O)[C@H](O)c2ccc(O)c(NC(=O)CN)c2)NC(=O)[C@@H]2C[C@@H](O)CN2C(=O)[C@H]([C@@H](C)O)NC1=O` (some centres undefined) [Pneumocandin analogue], the negative-log IC50 (pIC50) was 7.46.
`CCC(C)CC(C)CCCCCCCCC(=O)N[C@@H]1C[C@@H](O)[C@@H](O)NC(=O)[C@@H]2[C@@H](O)CCN2C(=O)[C@H]([C@@H](O)CC(N)=O)NC(=O)[C@H]([C@@H](O)[C@H](O)c2ccc(O)c([N+](=O)[O-])c2)NC(=O)[C@@H]2C[C@@H](O)CN2C(=O)[C@H]([C@@H](C)O)NC1=O` (some centres undefined) [Pneumocandin analogue] gave a pIC50 of 5.54.
On to `CCCc1cc(C[C@H](O)[C@@H]2NC(=O)[C@@H]3C[C@@H](O)CN3C(=O)[C@H]([C@@H](C)O)NC(=O)[C@H](NC(=O)CCCCCCCCC(C)CC(C)CC)C[C@@H](O)CNC(=O)[C@@H]3[C@@H](O)CCN3C(=O)[C@H]([C@@H](O)CC(N)=O)NC2=O)ccc1O` (some centres undefined) [Pneumocandin analogue], for which the pIC50 is 6.22.
With `CCc1cc(C[C@H](O)[C@@H]2NC(=O)[C@@H]3C[C@@H](O)CN3C(=O)[C@H]([C@@H](C)O)NC(=O)[C@H](NC(=O)CCCCCCCCC(C)CC(C)CC)C[C@@H](O)CNC(=O)[C@@H]3[C@@H](O)CCN3C(=O)[C@H]([C@@H](O)CC(N)=O)NC2=O)ccc1O` (some centres undefined) [Pneumocandin analogue], the pIC50 was 6.59.

The values above are taken from BindingDB's records for doi:10.1016/S0960-894X(97)10107-X (1997).
